Results on 2 molecules are retold here after ChEMBL document CHEMBL1158440, “Linear disulfide-containing low polymer as efficient DNA cleavage reagent” (Bioorg Med Chem Lett, 2009).

Calls of active or inactive are those of the source. No cut-off for these calls is given here.

Type in all cases: nucleic-acid assay
In test [1] the test system is Nucleic Acid. Description: Induction of supercoiled Escherichia coli pUC19 cleavage assessed as formation of nicked DNA at 56 mg/L in phosphate buffered saline at pH 7.4 after 24 hrs by agarose gel electrophoresis relative to control.
Test [2] relates to Nucleic Acid. Description: Induction of supercoiled Escherichia coli pUC19 cleavage assessed as formation of nicked DNA at 7 mg/L in phosphate buffered saline at pH 7.4 after 24 hrs by agarose gel electrophoresis relative to control.
In test [3] the test system is Nucleic Acid. Description: Induction of supercoiled Escherichia coli pUC19 cleavage assessed as formation of nicked DNA at 28 mg/L in phosphate buffered saline at pH 7.4 after 24 hrs by agarose gel electrophoresis relative to control.
The test system of another test is Calf thymus DNA. Description: Binding affinity to calf thymus DNA assessed as change in melting temperature at 18 mg/L by spectrophotometry. Particulars: Bos taurus.
The subject of test [4] is Nucleic Acid. Description: Induction of supercoiled Escherichia coli pUC19 cleavage assessed as formation of nicked DNA at 56 mg/L in phosphate buffered saline at pH 7.4 upto 24 hrs by agarose gel electrophoresis relative to control.
The subject of test [5] is Nucleic Acid. Description: Induction of supercoiled Escherichia coli pUC19 cleavage assessed as formation of nicked DNA at 56 mg/L in phosphate buffered saline at pH 7.4 after 8 hrs by agarose gel electrophoresis relative to control.
The subject of test [6] is Nucleic Acid. Description: Induction of supercoiled Escherichia coli pUC19 cleavage assessed as formation of nicked DNA at 14 mg/L in phosphate buffered saline at pH 7.4 after 24 hrs by agarose gel electrophoresis relative to control.
The test system of test [7] is Nucleic Acid. Description: Induction of supercoiled Escherichia coli pUC19 cleavage assessed as formation of nicked DNA at 56 mg/L in phosphate buffered saline at pH 7.4 after 24 hrs by agarose gel electrophoresis in presence of potassium iodide.
The test system of test [8] is Nucleic Acid. Description: Induction of supercoiled Escherichia coli pUC19 cleavage assessed as formation of nicked DNA at 56 mg/L in phosphate buffered saline at pH 7.4 after 24 hrs by agarose gel electrophoresis in presence of DMSO.
The test system of test [9] is Nucleic Acid. Description: Induction of supercoiled Escherichia coli pUC19 cleavage assessed as formation of nicked DNA at 56 mg/L in phosphate buffered saline at pH 7.4 after 24 hrs by agarose gel electrophoresis in presence of tert-butyl alcohol.
In test [10] the test system is Nucleic Acid. Description: Induction of supercoiled Escherichia coli pUC19 cleavage assessed as formation of nicked DNA at 56 mg/L in phosphate buffered saline at pH 7.4 after 24 hrs by agarose gel electrophoresis in presence of NaN3.

In general, ΔTm refers to the change in melting temperature against a reference sample. As to `O=C(CS)N1CCNCCN(C(=O)CS)CCNCC1`, the Activity with Nucleic Acid [1] is 63%; with Nucleic Acid [2], 20%; with Nucleic Acid [3] it was 44%; in the test on Nucleic Acid [4] it was 92%; in the test on Nucleic Acid [5] it was 35%; in the test with Nucleic Acid [6] it was 24%. Besides, in the test with Calf thymus DNA, the ΔTm was found to be 3.4 °C.
As for `O=C(CS)N1CCNCCN(C(=O)CSSCC(=O)N2CCNCCN(C(=O)CSSCC(=O)N3CCNCCN(C(=O)CSSCC(=O)N4CCNCCN(C(=O)CSSCC(=O)N5CCNCCN(C(=O)CS)CCNCC5)CCNCC4)CCNCC3)CCNCC2)CCNCC1`, the result in the test with Nucleic Acid [7], with Nucleic Acid [9] and with Nucleic Acid [10] was inactive. The Activity in the test on Nucleic Acid [1] was found to be 100%; in the test with Nucleic Acid [2] it was 31%; in the test with Nucleic Acid [3], 92%; with Nucleic Acid [6], 66%. Besides, the ΔTm with Calf thymus DNA came out at 4 °C. Further, the outcome in the test with Nucleic Acid [8] and with Nucleic Acid [5] was Active.
